Data set [1] in a line: Pharmacokinetics test in mice (dose-dependent). As to conditions: for AUC ratio / Cmax ratio / AUC / Cmax / Tmax / half-life: po; for AUC / Cmax / Tmax / half-life: ICR, mouse, plasma. The class given is in vivo, ICR mice. The procedure:
Two 6 week-old ICR mice (weight: approximately 25 g) were used per test group. A solution prepared by dissolving the compound of Example 3 in distilled water was administered to each experimental animal. The test compound was orally administered in an amount of 10 mL per kg of body weight.
At 0.5, 1, 2, 4, 10 and 24 hrs after the oral administration of the test compound, the blood was collected from jugular veins into a tube containing heparin (1,000 IU/mL, 3 μL). The obtained plasmas were centrifuged (12,000 rpm, 2 min, Eppendorf), and contained in a freezer at −80° C. until analysis.
50 μL of plasma was placed in a 2.0 mL tube with a cap (Eppendorf Co.) and acidified by adding 20 μL of 0.1% formic acid thereto. An internal standard solution and 1 mL of ethyl acetate as an extract solvent were added to the resulting solution. The resulting solution was mixed by using thermomixer (Eppendorf Co.) for 5 min at 1400 rpm, and then subjected to centrifugation (Eppendorf Co.). The supernatant was collected and concentrated at 35° C. by using a cyclone. The residue was re-dissolved in 50 μL of mobile phase and 5 μL of the resulting solution was injected into LC/MS and analyzed.
In Table 4, “po” refers to per oral; “AUC plasma” refers to an area under the plasma level-time curve; “Cmax” refers to a maximum plasma concentration; and “Tmax” refers to a time to reach Cmax.

A short description of data set [2]: Passage test through the blood-brain barrier (brain tissue concentration). The class given is in vivo, ICR mice and SD rats. The settings on record: for Kp: brain. As to the method:
Three 7 week-old ICR mice (weight: approximately 30 g) and three 8 week-old SD rats (weight: approximately 250 g) were used per test group. A solution prepared by dissolving a hydrochloride salt of the compound of Example 3 in excipient (DMSO/Tween 20/saline: 0.1/0.6/2.3, v/v/v) was administered to each experimental animal. The test compound was intravenously administered in an amount of 5 mL per kg of body weight through the fine vein or orally administered in an amount of 10 mL per kg of body weight.
At 0.5, 1, 2, 4, 10 and 24 hrs after the administration of the test compound, the mice and rats were subjected to insufflations narcosis using isoflorane, followed by cutting the abdomen open. Subsequently, 1 mL of blood was collected from abdominal veins into the tube containing heparin (1000 IU/mL, 3 μL). The obtained blood samples were centrifuged for 2 min at 12,000 rpm to obtain plasma. The obtained plasmas were kept in a freezer at −80° C. until the analysis.
The mice and rats from which the blood samples were obtained were subjected to bloodletting, and then, the brain tissues of the mice and rats was collected. The brain tissue thus obtained was washed with physiological saline 1 or 2 times to remove blood. The weight of the brain tissue was measured after the removal of adipose tissue and peripheral tissue. 4% bovine serum albumin (BSA) solution diluted with 10-fold was added to the brain tissue. The resulting solution was subjected to homogenization using a homogenizer. The diluted homogenate thus obtained was placed in 2 mL tube and was kept in a freezer at −80° C. until the analysis. All of the treatments to the sample were performed in ice.
50 μL of plasma was placed in a 2.0 mL tube with a cap (Eppendorf Co.). An internal standard solution and 1 mL of ethyl acetate as an extract solvent were added to the resulting solution. The resulting solution was mixed by using thermomixer (Eppendorf Co.) for 5 min at 1400 rpm, and then subjected to centrifugation (Eppendorf Co.). The supernatant was collected and concentrated at 35° C. by using a cyclone. The residue was re-dissolved in 50 μL of mobile phase and 5 μL of the resulting solution was injected into LC/MS and analyzed.
(§1) In Table 3, “iv” refers to intravenous injection; “po” refers to per oral; “AUC plasma” refers to an area under the plasma level-time curve; “Cmax” refers to a maximum plasma concentration; “Tmax” refers to a time to reach Cmax; “BA” refers to bioavailability (%) according to Equation 2 below; “AUC Brain” refers to an area under the brain tissue level-time curve; and “AUCBrain/AUCPlasma” refers to a passage rate of the test compound to the brain.

Data set [3] deals with T1, beta-amyloid 42 (Aβ42) (Homo sapiens, UniProt P05067).
T1 construct: Beta-amyloid 42 (Aβ42) was dissolved in dimethylsulfoxide (DMSO) to form a 250 mM Aβ42 stock solution
The data set can be described thus: Inhibitory effect on the formation of beta-amyloid fibrils in vitro (ThT fluorescence assay). The class given is biochemical. As to the method:
Beta-amyloid 42 (Aβ42) was dissolved in dimethylsulfoxide (DMSO) to form a […] Aβ42 stock solution. In addition, ThT (thioflavin T) was dissolved in distilled water to obtain a concentration of 1 mM and subsequently diluted with 50 mM glycin buffer (pH 8.5) to yield a 5 μM ThT stock solution. 45 μL of PBS (phosphate buffer saline, pH 7.4) was added to each of a 96-well fluorescence microplate (white, F-bottom). 5 μL of the 250 μM Aβ42 stock solution was added to each well. The final concentration of each compound obtained in Examples was in a range of 10 to 0.001 μM by adding 2 μL of a solution, which was prepared by dissolving the subject compounds obtained in Examples in DMSO, to each well. At this time, the final concentration of Aβ42 in each well was 25 μM. The plate was then incubated for 1 hr at room temperature, and 150 μL of the 5 μM ThT stock solution was added to each well.
The fluorescence intensity of each well was determined with the multi-label fluorescence counter (LS-55 Luminescence spectrometer: Perkin Elmer) at an excitation wavelength of 450 nm (excitation slit width: 10 nm) and an emission wavelength of 482 nm (emission slit width: 10 nm), while adjusting counting time to 1 second. The control group was prepared by adding PBS solution, Aβ42 and DMSO, without adding the inventive compound prepared above. A percent inhibition on the formation of beta-amyloid fibrils was calculated in accordance with the following equation, and IC50 was calculated by using GraphPad Prism version 4.03 Program.
% Inhibition=[1−(C−D)/(A−B)]×100
A (control group)=fluorescence intensity in a group treated with PBS solution, Aβ42 and DMSO
B (blank)=fluorescence intensity in a group treated with PBS solution and DMSO
C (experimental group)=fluorescence intensity in a group treated with PBS solution, Aβ42, the inventive compound and DMSO
D (compensation value to the experimental group) =fluorescence intensity in a group treated with PBS solution, the inventive compound and DMSO

Data set [4] can be described thus: Pharmacokinetics test (blood concentration) in mice and rats. The class given is in vivo, ICR mice and SD rats. As to the method: Three 7 week-old ICR mice (weight: approximately 30 g) and three 8 week-old SD rats (weight: approximately 250 g) were used per test group. A solution prepared by dissolving a hydrochloride salt of the compound of Example 3 in excipient (DMSO/Tween 20/saline: 0.1/0.6/2.3, v/v/v) or distilled water was administered to each experimental animal. The test compound was intravenously administered in an amount of 5 mL per kg of body weight through the fine vein or orally administered in an amount of 10 mL per kg of body weight.
At 0.5, 1, 2, 4, 10, and 24 hrs after the oral administration of the test compounds, the blood was collected from periorbital veins into the tube containing heparin (1000 IU/mL, 3 μL) for the mice, and from jugular veins for rats. The blood samples were centrifuged (12,000 rpm for 2 min, Eppendorf Co.) to obtain plasmas and the obtained plasmas were kept in a freezer until the analysis at −80° C.
50 μL of plasma was placed in a 2.0 mL tube with a cap (Eppendorf Co.) and acidified by adding 20 μL of 0.1% formic acid thereto. An internal standard solution and 1 mL of ethyl acetate as an extract solvent were added to the resulting solution. The resulting solution was mixed by using a thermomixer (Eppendorf Co.) for 5 min at 1,400 rpm, and then subjected to centrifugation (Eppendorf Co.). The supernatant was collected and concentrated at 35° C. by using a cyclone. The residue was re-dissolved in 50 μL of mobile phase and 5 μL of the resulting solution was injected into LC/MS and analyzed.
as §1
Bioavailability (%)=[(AUCpo/AUCiv)×(Doseiv/Dosepo)×100]
In the above Equation, AUCpo refers to an area under the blood concentration time curve (AUC) after per oral administration, AUCiv means an AUC after the intravenous injection; Doseiv refers to a dose of the intravenous injection; and Dosepo refers to a dose of the per os.

Where two headings read alike, the source gives them in different places.

T1 sequence (P05067 672-713 limits assumed): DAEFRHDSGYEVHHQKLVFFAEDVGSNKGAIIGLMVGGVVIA

What is called AUC is the area under the concentration-time curve, a measure of exposure. High values mean high exposure, low ones low exposure. One may read the Cmax as the peak of the concentration-time curve. Usually Tmax stands for the time from dosing to the highest level. One may read the half-life as the time needed for the level to fall by half in the phase considered. Low readings indicate fast loss, high ones slow loss. Regarding `CN(C)CCCOc1ccc2cc(/C=C/c3ccc(N(C)C)cc3)oc2c1` [Example 3, (E)-6-(3-dimethylaminopropoxy)-2-(4-dimethylaminostyryl)benzofuran], the AUC ratio in data set [1] (10 mg/kg, relative to AUC at 10 mg/kg) amounted to 1.0; in data set [1] (10 mg/kg, relative to AUC at 10 mg/kg, listed as Compound of Example 3, 10 mg/kg), 1; in data set [1] (30 mg/kg, AUC (30 mg/kg)/AUC (10 mg/kg)), 4.2; in data set [1] (100 mg/kg, AUC (100 mg/kg)/AUC (10 mg/kg)), 10.4. In addition, the Cmax ratio is given as 1 in data set [1] (10 mg/kg, relative to Cmax at 10 mg/kg); 4.7 in data set [1] (30 mg/kg, Cmax (30 mg/kg)/Cmax (10 mg/kg)); 9.4 in data set [1] (100 mg/kg, Cmax (100 mg/kg)/Cmax (10 mg/kg)). Besides, the results for the area under the curve (AUC) in data set [1] (10 mg/kg), in data set [1] (30 mg/kg) and in data set [1] (100 mg/kg) were 443 ng·h/mL, 1890 ng·h/mL and 4580 ng·h/mL, respectively. The figures for the Cmax in data set [1] (10 mg/kg), in data set [1] (30 mg/kg) and in data set [1] (100 mg/kg) were 40.4 ng/mL, 188 ng/mL and 378 ng/mL, respectively. The Tmax in data set [1] (10 mg/kg) worked out at 0.5 h; in data set [1] (30 mg/kg), 2 h; in data set [1] (100 mg/kg) it was 4 h. The results for the half-life in data set [1] (10 mg/kg), in data set [1] (30 mg/kg) and in data set [1] (100 mg/kg) were 4.9 h, 5.4 h and 23.5 h, respectively. Moreover, in data set [1] (oral 10, 30 and 100 mg/kg), the “dose-dependence of pharmacokinetics (linearity)” value was “linear pharmacokinetics”. Moreover, in data set [2] (read-out: passage ability compared with plasma (blood-brain barrier)), the Kp was not below 1.

As usually defined, the inhibition is how much of the control response was suppressed. A low value points to a response near the control. For `CN(C)CCCOc1ccc2cc(/C=C/c3ccc(N(C)C)cc3)oc2c1.Cl` [Example 23, (E)-6-(3-dimethylaminopropoxy)-2-(4-dimethylaminostyryl)benzofuran hydrochloride], the “Aβ42 % inhibition compared with comparative compound curcumin” value in data set [3] (10 μM) is reported as “equal to or greater than that of the comparative compound, curcumin”. Moreover, the inhibition at 10 µM in data set [3] (10 μM compound, 25 μM Aβ42, ThT fluorescence) was not below 70%. Further, the BA in data set [4] (10.0 mg/kg po vs 5.0 mg/kg iv) came to 43.4%. For the same molecule, the AUC in data set [4] (plasma, 5.0 mg/kg, iv, n = 3) is 535 ng·h/mL; in data set [4] (plasma, 10.0 mg/kg, po, n = 3), 472 ng·h/mL. The same molecule registered a Cmax in data set [4] (plasma, 10.0 mg/kg, po, n = 3) of 62.7 ng/mL. Also, the Tmax in data set [4] (plasma, 10.0 mg/kg, po, n = 3) is 4 h; in data set [2] (10.0 mg/kg, po, brain tissue) it was 10 h. The “AUC Brain” value in data set [2] (5.0 mg/kg, iv, brain tissue) is 54,114.7 ng · h/ml; in data set [2] (10.0 mg/kg, po, brain tissue) it was 27,412 ng · h/ml. Moreover, the “Cmax (brain)” value in data set [2] (10.0 mg/kg, po, brain tissue) is on record as 3,828 ng/ml. Also, the Kp amounted to 101 in data set [2] (5.0 mg/kg, iv, read-out: AUCBrain/AUCPlasma) and 58.1 in data set [2] (10.0 mg/kg, po, read-out: AUCBrain/AUCPlasma).
